Test results reported in patent US9227956B2 (Pfizer Inc., priority 2013, dated 2016).

What was measured:
human PCSK9 [1] = test: Cell Free PCSK9 Assay (PCSK9-luciferase RNA translated in HeLa cell lysate); format: biochemical; settings: 30° C. for 45 minutes, luciferase readout, top concentration 100 μM
Description: In order to eliminate the permeability barrier inherent to the WT7 and SCHH cell-based assays a cell-free system was also established to access compound activity. […] The construct was then in-vitro transcribed using the MEGAscript T7 Kit (Life Technologies) and RNA subsequently purified incorporating the MEGAclear Kit (Life Technologies) according to manufacturer's protocols. […] Growth was in a 50 L wavebag at a rocker speed of 25 rpm and angle 6.1 with 5% CO2 and 0.2 LPM flow rate with cells harvested at a density of 2-2.5e6/ml. Lysates additionally contained 1 tablet of Roche cOmplete-EDTA protease inhibitors per 50 ml with tris(2-carboxyethyl)phosphine (Biovectra) substituted for dithiothreitol, and were clarified by an additional final centrifugation at 10,000 rpm in a Sorvall SS34 rotor at 4° C. for 10 minutes. Compound screening was performed in 384-well plates in an eleven point, 0.5 log dilution format at a top test compound concentration of 100 μM in a final volume of 0.5% DMSO. […] Upon assay completion 1 μL from each reaction solution was removed and transferred to a second 384-well Optiplate (Perkin Elmer) containing 24 μL of SteadyGlo (Promega) and signal intensity was measured on the Envision (Perkin Elmer) using the enhanced luminescence protocol. […] The test compound data were converted into percent effect, using the ZPE and HPE controls as 0% and 100% activity, respectively, applying Equation 1 above. IC50 was then calculated and reported as the midpoint in the percent effect curve in molar units and the values are reported under the Cell Free PCSK9 IC50 (μM) column header within Table 1 Biological Data.

human PCSK9 [2] = test: PCSK9 AlphaLISA assay, PCSK9 lowering in WT7 cells; settings: WT7 cells (Huh7 stably over-expressing human PCSK9); secreted PCSK9 by AlphaLISA; overnight incubation (16-24 h); top concentration 20 μM; read-out: Cell Based PCSK9 IC50
From the text: An in-vitro AlphaLISA assay (Perkin Elmer) was developed in order to quantitate the level of PCSK9 secreted into the cell culture media following compound treatment. To detect and measure PCSK9 protein an in-house generated anti-PCSK9 antibody was coupled to AlphaLISA acceptor beads by an external vendor (PerkinElmer) and a second internally developed anti-PCSK9 antibody with an epiptope distinct from that of the acceptor beads was biotinylated in house. Streptavidin coated-donor beads (Perkin Elmer) are also included in the assay mixture which then binds the biotinylated anti-PCSK9 antibody and in the presence of PCSK9 this donor complex and acceptor beads are brought into close proximity. […] The ability of compound to modulate PCSK9 protein levels in conditioned media by AlphaLISA was assessed in the human hepatocellular carcinoma cell line Huh7, stably over-expressing human PCSK9. […] Following plasmid transfection the stable WT7 clone was identified and maintained under Zeocin selection. Compound screening was performed in 384-well plates where WT7 cells were plated at a density of 7500 cells per well in 20 μL of tissue culture media containing compound in an eleven point, 0.5 log dilution format at a high treatment concentration of 20 μM in a final volume of 0.5% DMSO. In additional to these test compound conditions each screening plate also included wells that contained 20 μM puromycin as a positive assay control defined as high percent effect, HPE, as well as wells containing media in 0.5% DMSO as a negative treatment control defined as zero percent effect, ZPE. After overnight compound incubation (16-24 h) the tissue culture media was collected and an aliquot from each sample was transferred to individual wells of a 384-well white Optiplate (Perkin Elmer). The coupled antibodies and donor beads were added to the assay plates in a buffer composed of 30 mM Tris pH 7.4, 0.02% Tween-20 and 0.02% Casein. Anti-PCSK9 acceptor beads (final concentration of 10 μg/mL) and anti-PCSK9 biotinylated antibody (final concentration of 3 nM) were added and incubated for 30 minutes at room temperature followed by the addition of the streptavidin donor beads (final concentration 40 μg/mL) for an additional 60 minutes. Additionally a standard curve was generated where AlphaLISA reagents were incubated in wells spiked with recombinant human PCSK9 diluted in tissue culture media from 5000 ng/mL to 0.6 ng/mL. […] The test compound data were converted into percent effect, using the ZPE and HPE controls as 0% and 100% activity, respectively. The equation used for converting each well reading into percent effect was:
[formula] IC50 was then calculated and reported as the midpoint in the percent effect curve in molar units and the values are reported under the Cell Based PCSK9 IC50 (μM) column header within Table 1 Biological Data. Additionally, to monitor the selectivity of compound response for PCSK9 the level of a second secreted protein, Transferrin, was measured from the same conditioned media treated with test compound by AlphaLISA. […] To detect and quantify effects on Transferrin 0.01 mL of the culture media was transferred to a 384-well white Optiplate and 0.01 mL of media was added to bring the volume to 0.02 ml. Anti-Transferrin acceptor beads were added to a final concentration of 10 μg/mL, biotinylated anti-Transferrin at 3 nM and streptavidin donor beads at 40 μg/mL. Percent effect and IC50 for Transferrin was computed in a similar manner as that described for PCSK9.

PCSK9 [3] = test: PCSK9 lowering in sandwich culture human hepatocytes (SCHH); format: cell-based; settings: maximum response versus vehicle
Description: Test compound in-vitro pharmacokinetic and pharmacodynamic relationships were measured in sandwich culture primary cryopreserved human hepatocytes. Within these studies SCHH cells (BD Biosciences IVT) were thawed at 37° C. then placed on ice, after which the cells were added to pre-warmed (37° C.) In VitroGRO-HT media and centrifuged at 50×g for 3 min. The cell pellet was re-suspended to 0.8×10^6 cells/mL in InVitroGRO-CP plating medium and cell viability determined by trypan blue exclusion. On day 1, hepatocyte suspensions were plated in BioCoat 96-well plates at a density of 80000 cells/well in a volume of 0.1 mL/well. After 18 to 24 hours of incubation at 37° C. in 5% CO2, cells were overlaid with ice-cold 0.25 mg/mL BD Matrigel Matrix Phenol Red-Free in incubation medium at 0.1 mL/well. Cultures were maintained at 37° C. in 5% CO2 in InVitroGRO-HI (FBS-free media), which was replaced every 24 hours and time course treatments were initiated on day 5. Prior to compound treatment cell plates were washed 3 times with 0.1 mL/well InVitroGRO-HI and 0.09 mL of media was added back in preparation for the compound additions. 1 uL of either DMSO or compound DMSO stocks at 30 mM, 10 mM, 3 mM and 1 mM were stamped into 96 well V bottom polypropylene plates. 0.099 mL of media was added to the compound plate and mixed thoroughly before the addition of 0.010 mL from the interim compound plate to the cell plate. […] At the indicated time, 0.08 mL of media was removed from the cell plates and frozen for subsequent analysis of secreted PCSK9 by AlphaLISA and for determination of drug levels in the media by liquid chromatography-tandem mass spectrometry (LC-MS/MS). The remaining media was then aspirated and the cell layers were washed 3× with ice cold Hanks Balanced Salt Solution (HBSS) under shaking conditions to remove the matrigel overlay and plates were then stored at −20° C. for subsequent determination of drug levels in the cells by LC-MS/MS. AlphaLISA determination of PCSK9 protein levels within the conditioned media was performed ultilizing the identical reagents and detection protocols described above for the WT7 cells.

PCSK9 [4] = test: as above; format: cell-based; settings: maximum response versus vehicle; at 8 h at 100 μM

IC50 (human PCSK9 [1])	IC50 (human PCSK9 [2])	Sandwich Culture Hepatocyte (SCHH) PCSK9 Lowering (PCSK9 [3]; at 6 h at 30 uM)	Sandwich Culture Hepatocyte (SCHH) PCSK9 Lowering (PCSK9 [3]; at 8 h at 30 μM)	Sandwich Culture Hepatocyte (SCHH) PCSK9 Lowering (PCSK9 [4])	Structure (SMILES)
3.56 µM	> 20 µM	48% at 6 h at 30 uM	–	–	Cc1cccnc1N(C(=O)c1ccc(-c2cnn(C)c2-c2nnn(C(C)OC(=O)C(C)C)n2)cc1)[C@@H]1CCCNC1 (single isomer, unassigned) [Example 51]
10.7 µM	> 20 µM	25% at 6 h at 30 uM	–	–	CCC(OC(=O)C(C)C)n1nnc(-c2c(-c3ccc(C(=O)N(c4ncccc4C)[C@@H]4CCCNC4)cc3)cnn2C)n1 (single isomer, unassigned) [Example 52]
31.8 µM	> 20 µM	0% at 6 h at 30 uM	–	–	CCC(OC(=O)C(C)C)n1nnc(-c2c(-c3ccc(C(=O)N(c4ncccc4C)[C@@H]4CCCNC4)cc3)cnn2C)n1 (single isomer, unassigned) [Example 53]
12.8 µM	> 20 µM	29% at 6 h at 30 uM	–	–	Cc1cccnc1N(C(=O)c1ccc(-c2cnn(C)c2-c2nnn(C(OC(=O)C(C)C)C(C)C)n2)cc1)[C@@H]1CCCNC1 (single isomer, unassigned) [Example 54]
19.8 µM	> 19.2 µM	40% at 6 h at 30 uM	–	–	Cc1cccnc1N(C(=O)c1ccc(-c2cnn(C)c2-c2nnn(C(OC(=O)C(C)C)C(C)C)n2)cc1)[C@@H]1CCCNC1 (single isomer, unassigned) [Example 55]
0.44 µM	3.2 µM	–	74% at 8 h at 30 μM	–	Cc1cccnc1N(C(=O)c1ccc(-c2cnn3cccnc23)cc1)[C@@H]1CCCNC1 [Example 1, N-(3-methylpyridin-2-yl)-N-[(3R)-piperidin-3-yl]-4-(pyrazolo[1,5-a]pyrimidin-3-yl)benzamide]
18 µM	> 20 µM	–	–	26% at 8 h at 100 μM	Cn1ncc(-c2ccc(C(=O)N(c3ncccc3Cl)[C@@H]3CCCNC3)cc2)c1C(=O)O [Example 7, 4-(4-{(3-chloropyridin-2-yl)[(3R)-piperidin-3-yl]carbamoyl}phenyl)-1-methyl-1H-pyrazole-5-carboxylic acid]
3.7 µM	9.5 µM	–	70% at 8 h at 30 μM	–	CCOC(=O)OC(C)OC(=O)c1c(-c2ccc(C(=O)N(c3ncccc3Cl)[C@@H]3CCCNC3)cc2)cnn1C (stereo partly drawn) [Example 8, 1-[(ethoxycarbonyl)oxy]ethyl 4-(4-{(3-chloropyridin-2-yl)[(3R)-piperidin-3-yl]carbamoyl}phenyl)-1-methyl-1H-pyrazole-5-carboxylate]
0.64 µM	1.5 µM	–	87% at 8 h at 30 μM	–	COC(=O)c1c(-c2ccc(C(=O)N(c3ncccc3Cl)[C@@H]3CCCNC3)cc2)cnn1C [Example 10, Methyl 4-(4-{(3-chloropyridin-2-yl)[(3R)-piperidin-3-yl]carbamoyl}phenyl)-1-methyl-1H-pyrazole-5-carboxylate]
1.7 µM	> 20 µM	–	36% at 8 h at 30 μM	–	Cn1ncc(-c2ccc(C(=O)N(c3nccc4ccn(C)c34)[C@@H]3CCCNC3)cc2)c1C(=O)O [Example 12, 1-methyl-4-(4-{(1-methyl-1H-pyrrolo[2,3-c]pyridin-7-yl)[(3R)-piperidin-3-yl]carbamoyl}phenyl)-1H-pyrazole-5-carboxylic acid]
0.8 µM	2.3 µM	–	83% at 8 h at 30 μM	–	COC(=O)c1c(-c2ccc(C(=O)N(c3ncccc3C)[C@@H]3CCCNC3)cc2)cnn1C [Example 13, Methyl 1-methyl-4-(4-{(3-methylpyridin-2-yl)[(3R)-piperidin-3-yl]carbamoyl}phenyl)-1H-pyrazole-5-carboxylate]
3.1 µM	7.3 µM	–	72% at 8 h at 30 μM	–	CCOC(=O)O[C@@H](C)OC(=O)c1c(-c2ccc(C(=O)N(c3ncccc3Cl)[C@@H]3CCCNC3)cc2)cnn1C [Example 15a, (1S)-1-[(ethoxycarbonyl)oxy]ethyl 4-(4-{(3-chloropyridin-2-yl)[(3R)-piperidin-3-yl]carbamoyl}phenyl)-1-methyl-1H-pyrazole-5-carboxylate]
3.05 µM	> 20 µM	–	–	63% at 8 h at 100 uM	Cc1cccnc1N(C(=O)c1ccc(-c2cnn(C)c2-c2nn[nH]n2)cc1)[C@@H]1CCCNC1 [Example 17, N-(3-methylpyridin-2-yl)-4-[1-methyl-5-(2H-tetrazol-5-yl)-1H-pyrazol-4-yl]-N-[(3R)-piperidin-3-yl]benzamide]
5.61 µM	> 20 µM	–	–	15% at 8 h at 100 uM	Cc1cccnc1N(C(=O)c1ccc(-c2cnn(C)c2-c2noc(=O)[nH]2)cc1)[C@@H]1CCCNC1 [Example 18, 4-[1-methyl-5-(5-oxo-4,5-dihydro-1,2,4-oxadiazol-3-yl)-1H-pyrazol-4-yl]-N-(3-methylpyridin-2-yl)-N-[(3R)-piperidin-3-yl]benzamide]
